{
  "source": "paper PMC11257039",
  "about": "“VCP activator reverses nuclear proteostasis defects and enhances TDP-43 aggregate clearance in multisystem proteinopathy models” (The Journal of Clinical Investigation, 2024)",
  "biological_target": "T1, recombinant WT VCP (Mus musculus, UniProt Q01853)",
  "T1 construct": "in the full-length recombinant VCP; His (N); made in house; host or cells: Escherichia coli BL21-CodonPlus (DE3)-RIL",
  "T1 sequence (Q01853 whole entry)": "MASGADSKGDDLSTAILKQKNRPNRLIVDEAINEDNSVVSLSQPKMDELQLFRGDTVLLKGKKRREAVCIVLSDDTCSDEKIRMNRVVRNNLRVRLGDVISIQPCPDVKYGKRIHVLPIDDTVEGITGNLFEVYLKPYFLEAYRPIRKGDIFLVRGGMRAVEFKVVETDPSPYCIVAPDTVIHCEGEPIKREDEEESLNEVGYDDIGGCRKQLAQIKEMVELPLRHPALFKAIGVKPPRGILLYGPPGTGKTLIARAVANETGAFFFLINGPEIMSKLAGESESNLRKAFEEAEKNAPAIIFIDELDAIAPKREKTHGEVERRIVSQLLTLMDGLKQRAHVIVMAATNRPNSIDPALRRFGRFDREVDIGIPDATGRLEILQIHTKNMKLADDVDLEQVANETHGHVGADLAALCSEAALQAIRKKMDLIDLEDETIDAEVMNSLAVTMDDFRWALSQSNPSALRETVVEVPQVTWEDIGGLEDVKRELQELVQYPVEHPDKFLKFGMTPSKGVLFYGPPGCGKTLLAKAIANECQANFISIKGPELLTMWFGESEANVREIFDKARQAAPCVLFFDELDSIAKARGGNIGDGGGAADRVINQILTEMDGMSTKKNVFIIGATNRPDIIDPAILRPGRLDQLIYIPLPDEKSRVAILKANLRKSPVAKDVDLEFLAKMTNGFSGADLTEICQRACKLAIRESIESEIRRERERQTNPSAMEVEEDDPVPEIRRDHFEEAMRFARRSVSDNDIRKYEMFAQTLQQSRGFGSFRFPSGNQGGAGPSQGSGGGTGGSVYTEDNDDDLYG",
  "experiment": "MESG-PNP (EnzCheck) phosphate release ATPase assay, WT VCP",
  "assay_type": "biochemical",
  "conditions": "for ATPase activity v0/ET: 25 μM compound, replicate experiments",
  "method_in_brief": "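50 nM mouse WT VCP with 25 μM compound, 2% DMSO and varied ATP at 25°C; phosphate release followed by MESG-PNP absorbance at 360 nm for over 15 min against a phosphate standard curve. Initial rates from the linear portion, fitted to a 3-parameter dose curve or to Michaelis-Menten.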",
  "note": "Several values for one entry are separate records, joined by “and”; a condition that tells them apart may be missing. Identical values can stand only once.",
  "data": [
    {"smiles": "COCCNC(=O)NC(=O)COC(=O)c1cc([N+](=O)[O-])ccc1Sc1nc(C)cs1", "note": "[UP109]", "values": [
      {"measurement": "decrease in KM compared with DMSO", "setting": "25 μM activator", "value": "more than 2 fold"},
      {"measurement": "kcat (nmol Pi / nmol VCP / s) (95% CI)", "setting": "25 μM activator", "value": "0.489 (0.459, 0.520) nmol Pi / nmol VCP / s"},
      {"measurement": "increase in catalytic efficiency (kcat/KM)", "setting": "25 μM activator, versus DMSO", "value": "> 4", "unit": "fold"},
      {"measurement": "increase in kcat", "setting": "25 μM activator, versus DMSO", "value": 100, "unit": "%"},
      {"measurement": "ATPase activity v0/ET", "setting": "[ATP] 62.5 μM", "value": "0.302 nmol Pi / nmol VCP / s and 0.325 nmol Pi / nmol VCP / s and 0.308 nmol Pi / nmol VCP / s"},
      {"measurement": "ATPase activity v0/ET", "setting": "[ATP] 125 μM", "value": "0.374 nmol Pi / nmol VCP / s and 0.402 nmol Pi / nmol VCP / s and 0.380 nmol Pi / nmol VCP / s"},
      {"measurement": "ATPase activity v0/ET", "setting": "[ATP] 250 μM", "value": "0.403 nmol Pi / nmol VCP / s and 0.414 nmol Pi / nmol VCP / s and 0.420 nmol Pi / nmol VCP / s"},
      {"measurement": "ATPase activity v0/ET", "setting": "[ATP] 500 μM", "value": "0.423 nmol Pi / nmol VCP / s and 0.468 nmol Pi / nmol VCP / s and 0.467 nmol Pi / nmol VCP / s"},
      {"measurement": "ATPase activity v0/ET", "setting": "[ATP] 1000 μM", "value": "0.455 nmol Pi / nmol VCP / s and 0.493 nmol Pi / nmol VCP / s and 0.498 nmol Pi / nmol VCP / s"}
    ]}
  ]
}
